The record followed here is US8563588B2, “Imidazolone derivatives, method for the preparation thereof and biological applications” (Universite de Rennes 1, priority 2007, dated 2013).

This assay deals with Rat recombinant DYRK1A (Rattus norvegicus, UniProt Q63470). The assay can be described thus: Assaying of the kinase activity of DYRK1A (33P-ATP, myelin basic protein, P81 filter).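 Note: GST fusion rat DYRK1A made in E. coli, scintillation counting of label bound to substrate, activity as percent of the inhibitor-free maximum after blank subtraction.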 Type of assay: biochemical.
The mark [1] stands for this setting: 15 μM ATP, 30° C., 30 min, read-out: IC50 DYRK1A.

Like-named read-outs stand apart in the source and are kept apart here.

Protocol: Rat recombinant DYRK1A was expressed in E. coli as a GST fusion protein. It was purified by affinity chromatography on beads of immobilized glutathione (elution with free glutathione). […] After incubation at 30° C. for 30 min, 25-μL aliquots of supernatant were spotted onto Whatman P81 phosphocellulose filters and the filters were washed five times in a solution of phosphoric acid (10 ml/L water). The radioactivity incorporated into the substrate, retained on the moist filters, was then counted in the presence of ACS scintillation fluid (Amersham). The control values were subtracted and the activities were expressed as % of the maximum value, i.e. the value obtained in the absence of inhibitors. The IC50 values were calculated from dose-response curves and are given in μM.

By IC50 is commonly meant the concentration at which inhibition is half-maximal. For the compound `CC(O)c1cccc(NC2=N/C(=C\c3ccc4c(c3)OCO4)C(=O)N2C)c1` (racemic) [MADE36], the half-inhibitory concentration (IC50) under setting [1] came to 260 nM.

On to `CCSC1=N/C(=C\c2c[nH]c3ccccc23)C(=O)N1C` [FB08], for which the IC50 under setting [1] was greater than 10000 nM. The same measure, in the same setting: the figure for `CCCSC1=N/C(=C\c2c[nH]c3ccccc23)C(=O)N1C` [FB14] is greater than 10000 nM; for `CCCCSC1=N/C(=C\c2c[nH]c3ccccc23)C(=O)N1C` [FB17] it is greater than 10000 nM.

For the compound `CNC1=N/C(=C\c2ccc3c(c2)OCO3)C(=O)N1C` [FC084], the half-maximal inhibitory concentration (IC50) (IC50 DYRK1A) was 2700 nM. For `CNC1=N/C(=C\c2ccc3c(c2)OCO3)C(=O)N1` [FC085], the 50% inhibitory concentration (IC50) under setting [1] amounted to 1700 nM. Same read-out and setting: the value for `CCNC1=N/C(=C\c2ccc3c(c2)OCO3)C(=O)N1C` [FC088] was 900 nM; that for `CCNC1=N/C(=C\c2ccc3c(c2)OCO3)C(=O)N1` [FC090, (5Z)-5-Benzo[1,3]dioxol-5-ylmethylene-2-ethylamino-3,5-dihydro-4H-imidazol-4-one] was 1100 nM; that for `CC(C)NC1=N/C(=C\c2ccccc2)C(=O)N1C` [FC095] was greater than 10000 nM. Consider `CN1C(=O)/C(=C/c2ccc3c(c2)OCO3)N=C1NCc1ccccc1` [FC097], for which the IC50 under setting [1] came out at 1400 nM.

Turning to `COCCNC1=N/C(=C\c2ccc3c(c2)OCO3)C(=O)N1C` [FC103], the IC50 under setting [1] was 1200 nM. On the same count and under the same terms, the value for `COc1cc(/C=C2\N=C(NC(C)C)N(C)C2=O)cc(OC)c1OC` [FC104b] was greater than 10000 nM; that for `CN1C(=O)/C(=C/c2ccc3c(c2)OCO3)N=C1NCC1CC1` [FC107] was 980 nM. Same read-out and setting: the value for `CC(C)NC1=N/C(=C\c2ccccn2)C(=O)N1C` [FC109] was greater than 10000 nM; that for `O=C1NC(NCC2CC2)=N/C1=C\c1ccc2c(c1)OCO2` [FC114] was 500 nM; that for `CCCNC1=N/C(=C\c2ccc3c(c2)OCO3)C(=O)N1` [FC126] was 890 nM. As to `CCCNC1=N/C(=C\c2ccccc2)C(=O)N1C` [FCFD08], the half-maximal inhibitory concentration (IC50) under setting [1] was greater than 10000 nM.

As for `C=CCNC1=N/C(=C\c2ccc3c(c2)OCO3)C(=O)N1C` [FCFD13], the half-inhibitory concentration (IC50) under setting [1] came to 1600 nM. Turning to `CCCNC1=N/C(=C\c2cc(OC)c(OC)c(OC)c2)C(=O)N1C` [FCFD14], under setting [1], the 50% inhibitory concentration (IC50) was greater than 10000 nM. Same read-out and setting: the value for `CC(C)CNC1=N/C(=C\c2ccc3c(c2)OCO3)C(=O)N1C` [FCFD24] was greater than 10000 nM. With `CC(C)NC1=N/C(=C\c2ccc3c(c2)OCO3)C(=O)N1C` [FCJR232], the IC50 (IC50 DYRK1A, 15 μM ATP, 30° C., 30 min) was 1300 nM. With `CCCNC1=N/C(=C\c2ccc3c(c2)OCO3)C(=O)N1C` [FCJR405, (5Z)-5-Benzo[1,3]dioxol-5-ylmethylene-3-methyl-2-propylamino-3,5-dihydroimidazol-4-one], under setting [1], the IC50 was determined as 2300 nM. For `CCCCNC1=N/C(=C\c2ccc3c(c2)OCO3)C(=O)N1C` [FCJR457], the 50% inhibitory concentration (IC50) under setting [1] was determined as 1800 nM. Still for that read-out and setting: the figure for `CCCCNC1=N/C(=C\c2ccc3c(c2)OCO3)C(=O)N1CCCC` [FCJR464] is greater than 10000 nM; for `CC(=O)NC1=N/C(=C\c2ccc3c(c2)OCO3)C(=O)N1C` [IA24] it is greater than 10000 nM; for `CN1C(=O)/C(=C/c2ccc3c(c2)OCO3)N=C1NC(=O)Cc1ccccc1` [IA25] it is greater than 10000 nM.

Regarding `CN1C(=O)/C(=C/c2ccc3c(c2)OCO3)N=C1NC(=O)C(C)(C)C` [IA31], the IC50 under setting [1] was 3400 nM. Still for that read-out and setting: the value for `C=CC(=O)NC1=N/C(=C\c2ccc3c(c2)OCO3)C(=O)N1C` [IA32] was 15000 nM; that for `CN1C(=O)/C(=C/c2ccc3c(c2)OCO3)N=C1NC(=O)c1ccccc1` [IA33] was greater than 10000 nM; that for `CCOC(=O)C(=O)NC1=N/C(=C\c2ccc3c(c2)OCO3)C(=O)N1C` [IA35] was greater than 10000 nM. Take `CSC1=N/C(=C\c2ccccc2)C(=O)N1C` [JR158]: the IC50 under setting [1] was greater than 10000 nM. `CSC1=N/C(=C\c2ccccc2O)C(=O)N1C` [JR159]: under setting [1], the IC50 is greater than 10000 nM.

In the case of `CSC1=N/C(=C\c2ccccn2)C(=O)N1C` [JR160], under setting [1], the IC50 is greater than 10000 nM. Same read-out and setting: the figure for `COc1cc(/C=C2\N=C(SC)N(C)C2=O)cc(OC)c1OC` [JR161] is greater than 10000 nM. On the same count and under the same terms, the value for `CSC1=N/C(=C\c2ccc(Br)cc2)C(=O)N1C` [JR162] was greater than 10000 nM.
